Experimental data reported in patent US11459313B2, “Aziridinyl and amino dimeric naphthoquinone compounds and use for acute myeloid leukemia” (University of Maryland, Baltimore, priority 2016, dated 2022).
Like-named read-outs stand apart in the source and are kept apart here.

What was measured:
Format in all cases: cell-based, human
THP-1 cells [1] = experiment: Cell survival assay (trypan blue exclusion), THP-1; settings: 72 hours; at 1, 10 and 100 μM
Experimental: MOLM-.14 and THP-1 cells were seeded in 96-well plates and treated with DMSO, mono- and bis-aziridinyl dimeric naphthoquinone compounds, or dimethylamine dimeric naphthoquinone Compound 114 as previously described. Cells were incubated for 72 hours, and then counted using trypan blue exclusion on the Countess® automated cell counter (Life Technologies®). Cell counts were performed in duplicates, and the averages were graphed using GraphPad Prism® software (GraphPad®).
Cell survival was determined using trypan blue exclusion, in which cells are plated and the following day treated similarly to the proliferation assay. The bis-aziridinyl dimeric naphthoquinone Compound 101 was effective in decreasing cell number at increasing concentrations of compound in MOLM-14 and THP1 cells.

MOLM-14 cells [2] = experiment: Gamma-H2Ax immunofluorescence assay, MOLM-14; settings: 24 hours; 200 nM, 1.0 and 2.0 μM
Experimental: MOLM-14 cells were seeded in the afternoon and the following morning treated with DMSO, or aziridinyl-dimeric naphthoquinone Compound 101 at 1×, 5×; or 10× IC50 concentrations. Cells were harvested at 24 and 48 hours. Briefly, cells were washed twice with PBS, counted, and resuspended into PBS/2% FBS. Approximately 150,000 cells were pelleted on Superfrost® microslides (Thermo Fisher Scientific®) using a cytospin machine (Thermo Fisher Scientific®) for 10 minutes at 800 RPM. Slides were air-dried for 5 minutes, then fixed in 4% paraformaldehyde for 15 minutes, washed with PBS 3 times, each time for 5 minutes and permeabilized with permeabilization buffer (50 mM NaCl, 3 mM MgCl2, 10 mM HEPES, 200 mM sucrose, and 0.5% Triton-X-100) for 10 minutes. After overnight blocking in PBS/10% FBS, slides were washed 3 times, each time for 5 minutes with wash buffer (PBS, 1% BSA, and 0.1% Triton-X-100), stained with 1:100 anti-phosphohistone H2Ax antibody (Millipore®), washed with wash buffer again 3 times, each time for 5 minutes, and stained with 1:200 goat anti-mouse IgG, Dylight 594® (Thermo Scientific®), washed 3 times, each time for 5 minutes with wash buffer, and mounted with Vectashield® mounting medium with 4′,6-diamidino-2-phenylindole (DAPI, Vector Labs®). Slides sat overnight and were sealed the following day with clear nail polish. […]

MOLM-14 cells [3] = experiment: Cellular reactive oxygen species (H2DCFA), MOLM-14
Experimental: (§1) MOLM-14 and THP-1 cells in logarithmic growth phase were centrifuged and resuspended in PBS at one million cells per milliliter (mL) of medium. Cells were preloaded with 2′,7′-dichlorodihydrofluorescein diacetate (H2DCFA, Life Technologies®) at a final concentration of 2 μM and incubated at 37° C. in the dark for 25 minutes. Cells were centrifuged and resuspended at one million per mL in phenol red-free RPMI plus 10% FBS and incubated at 37° C. in the dark for 25 minutes. Treatments were prepared at 2× concentrations of […] in complete phenol red-free RPMI and added to each well to yield 1× concentrations of 20, 10, 2, or 0.5 μM. Cells were incubated in the dark at 37° C. and measurement of ROS was performed with a Bio-tek® Synergy HT plate reader at various time points post treatment.
(§2) In order to elucidate the mechanisms by which the bis-aziridinyl naphthoquinone exerts anti-leukemic activity, the amount of reactive oxygen species (ROS) that cells produced upon treatment with Compound 101 was examined. MOLM-14 and THP-1 cells were loaded with the ROS dye H2DCFA and subsequently plated into 96-well plates. Cells were treated with vehicle (negative control), Compound 101 in varying concentrations, or hydrogen peroxide (positive control), and observed over a period of 2-6 hours. The relative fluorescence units (RFU) were read at various time points. […]

MOLM-14 cells [4] = experiment: WST-1 cell proliferation assay, MOLM-14; settings: Homo sapiens
Experimental: Cell lines were seeded into 96-well plates the afternoon prior to treatment. Approximately 18 hours later, bis and mono-aziridine dimeric naphthoquinone compounds were semi-serially diluted in dimethyl sulfoxide (DMSO) and then growth medium, and added to cells. Plates were incubated for 72 hours prior to addition of WST-1 (Promega®). Plates were read after 4 additional hours of incubation at 37° C. using a Bio-Tek Synergy® HT plate reader (Bio-Tek®). Data were analyzed and graphed using GraphPad Prism® Software (Graph Pad®).
Primary AML cells from patients and cell lines were seeded into 96-well plates the afternoon prior to treatment. Eighteen hours later, amino-dimeric naphthoquinone Compounds 106, 101, and 114 were semi-serially diluted in dimethyl sulfoxide (DMSO) and then growth medium, and added to the cells. In order to quantitate proliferation of metabolically active cells, plates were incubated for 72 hours for cell lines and 48 hours for primary AML cells prior to addition of water-soluble tetrazolium (WST-1) (Clontech®). Plates were read after four additional hours of incubation at 37° C. using a Bio-Tek Synergy® HT plate reader (Bio-Tele®). Data were analyzed and graphed using GraphPad Prism® Software (GraphPad®). IC50 was defined as the concentration that decreases viable cell numbers by 50%. IC50 values were calculated as mean±standard deviation from at least two independent experiments. If availability of primary blasts was limited, the IC50 was obtained from a single experiment.
To investigate antiproliferative activity of amino-dimeric naphthoquinones against AML cells, an MTT-like cell proliferation assay was performed in the AML cell lines using WST-1 (water soluble tetrazolium salts; Promega®). MOLM-14 and AML-D cells, as well as normal hematopoietic bone marrow cells from a healthy donor, were exposed to a range of concentrations of Compound 101. Human leukemia cells were cultured in the presence of the compound for 72 hours (48 hours for primary cells) and WST-1 reagent was then added. The cells then were monitored for cell growth or the number of cells proliferating and the IC50 calculated. The IC50 is the concentration at which 50% of the cells are not proliferating compared to control cells treated with vehicle. See FIG. 2A, FIG. 2B, and FIG. 2C for representative graphs of these IC50 determinations.

THP-1 cells [5] = experiment: Cellular reactive oxygen species (H2DCFA), THP-1
Experimental: as §1, §2

O=C1C(C2=C(N3CC3)C(=O)c3ccccc3C2=O)=C(N2CC2)C(=O)c2ccccc21 [Compound 101, 3,3′-di(aziridin-1-yl)-[2,2′-binaphthalene]-1,1 4,4′-tetrone]
viable cells, THP-1 (THP-1 cells [1]): statistically significant (p<0.05) reduction in viable cells | γ-H2Ax phosphorylation (double-stranded DNA breaks), MOLM-14 (MOLM-14 cells [2]): substantial γ-H2Ax phosphorylation | time to production of ROS, MOLM-14 (MOLM-14 cells [3]): ≤ 2 h | ROS production, MOLM-14 (MOLM-14 cells [3]; 0.5-20 μM, 2-6 hours): dose-dependent increase in ROS production | IC50 (MOLM-14 cells [4]; MOLM-14, 72 h, 72 hours, WST-1, read-out: IC50 against MOLM-14 cells): 150 to 200 nM | IC50 (MOLM-14 cells [4]; MOLM-14, Example 5 text, read-out: IC50 MOLM-14): 180 ± 60 nM | IC50 (MOLM-14 cells [4]; MOLM-14, Table 5, read-out: IC50 MOLM-14 (n)): 250 ± 200 nM | time to production of ROS, THP-1 (THP-1 cells [5]): ≤ 2 h | ROS production, THP-1 (THP-1 cells [5]; 0.5-20 μM, 2-6 hours): dose-dependent increase in ROS production
